Laboratory results as given in the supplement of paper PMC10307832.

Tests used:
Test in all cases: relative viability (nuclei count vs DMSO), 5 days (fraction); higher = more cells survive
[1] = compound: COC1=CC=C(C=C1)CN2C=CC3=C2C=C(C=C3)C(=O)NO + N=C(N)NC(=N)NCCc1ccccc1 [Phenformin] (partner 250 µM)
Outline: (§1)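 One day after seeding in 1536-well plates, lung cancer cell lines were dosed by pin tool. Dosing was either single-drug or a fixed anchor-drug dose plus five library-drug doses (not always all listed) in √10 steps. After 5 days, nuclei were stained in one fix-and-stain step and counted on 4× images, and relative viability is the nuclei count of treated wells over that of vehicle wells, given as the median of duplicate plates.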

[2] = compound: COC1=CC=C(C=C1)CN2C=CC3=C2C=C(C=C3)C(=O)NO + CC(=O)Nc1cccc(-n2c(=O)n(C3CC3)c(=O)c3c(Nc4ccc(I)cc4F)n(C)c(=O)c(C)c32)c1 [Trametinib] (partner 0.02 µM)
Outline: as §1

[3] = compound: COC1=CC=C(C=C1)CN2C=CC3=C2C=C(C=C3)C(=O)NO + Nc1ncn([C@H]2C[C@H](O)[C@@H](CO)O2)c(=O)n1 [Decitabine] (partner 2 µM)
Outline: as §1

[4] = compound: C[C@]1(c2nc3c(C(N)=O)cccc3[nH]2)CCCN1 [Veliparib] + CC1(C)CCC(c2ccc(Cl)cc2)=C(CN2CCN(c3ccc(C(=O)NS(=O)(=O)c4ccc(N[C@H](CCN5CCOCC5)CSc5ccccc5)c(S(=O)(=O)C(F)(F)F)c4)cc3)CC2)C1 [Navitoclax] (partner 0.5 µM)
Outline: as §1

Cell Line	relative viability ([1]; first compound 0.08 µM)	relative viability ([1]; first compound 0.253 µM)	relative viability ([1]; first compound 0.8 µM)	relative viability ([1]; first compound 2.53 µM)	relative viability ([1]; first compound 8 µM)	relative viability ([2]; first compound 0.08 µM)	relative viability ([2]; first compound 0.253 µM)	relative viability ([2]; first compound 0.8 µM)	relative viability ([2]; first compound 2.53 µM)	relative viability ([2]; first compound 8 µM)	relative viability ([3]; first compound 0.08 µM)	relative viability ([3]; first compound 0.253 µM)	relative viability ([3]; first compound 0.8 µM)	relative viability ([3]; first compound 2.53 µM)	relative viability ([3]; first compound 8 µM)	relative viability ([4]; first compound 0.02 µM)	relative viability ([4]; first compound 0.06325 µM)	relative viability ([4]; first compound 0.2 µM)	relative viability ([4]; first compound 0.6325 µM)	relative viability ([4]; first compound 2 µM)
NCI-H2342	0.588	0.511	0.48	0.453	0.409	0.815	0.901	0.759	0.971	0.861	0.76	0.733	0.707	0.799	0.769	–	–	–	–	–
HOP-62	0.583	0.658	0.696	0.643	0.623	0.362	0.399	0.371	0.391	0.375	0.173	0.217	0.216	0.27	0.244	1.05	1	1.06	0.937	1.03
BEN	0.267	0.224	0.263	0.269	0.259	0.936	1.03	0.942	0.889	0.961	0.677	0.726	0.702	0.664	0.618	0.0726	0.0807	0.0698	0.0678	0.0746
NCI-H647	0.371	0.525	0.443	0.474	0.404	0.481	0.365	0.493	0.669	0.439	0.509	0.401	0.434	0.426	0.405	1.13	1.14	1.14	1.03	1.1
NCI-H2085	0.739	0.758	0.84	0.722	0.647	0.528	0.665	0.692	0.524	0.406	0.561	0.571	0.639	0.593	0.549	1.13	0.984	1.15	0.932	1.11
NCI-H2347	0.382	0.357	0.415	0.525	0.368	0.268	0.313	0.303	0.283	0.235	0.612	0.691	0.681	0.61	0.577	0.794	0.775	0.724	0.695	0.729
NCI-H2228	–	0.381	0.3	0.305	0.24	0.386	0.664	0.831	0.598	0.433	–	–	–	–	–	1.13	0.953	1.01	0.688	1.05
NCI-H2009	0.489	0.483	0.482	0.501	0.43	0.288	0.264	0.261	0.248	0.194	0.331	0.352	0.37	0.36	0.365	1.22	1.07	1.2	1.1	1.31
IA-LM	–	–	–	–	–	–	–	–	–	–	–	–	–	–	–	0.939	0.697	0.755	0.697	0.94
NCI-H358	–	0.351	0.411	0.314	0.267	–	0.165	0.153	0.15	0.112	–	0.221	0.292	0.197	0.179	–	–	–	–	–
SK-LU-1	0.551	0.566	0.596	0.604	0.469	0.347	0.537	0.51	0.579	0.447	0.611	0.616	0.634	0.753	0.531	0.985	1.05	0.959	0.804	0.793
LCLC-97TM1	0.176	0.399	0.441	0.46	0.353	–	0.201	0.228	0.19	0.204	–	0.224	0.236	0.225	0.181	0.425	0.32	0.387	–	0.476
NCI-H322M	–	0.821	0.762	0.737	0.763	–	–	0.493	0.495	0.485	–	–	0.716	0.66	0.69	1.21	1.04	1.19	1.23	1.2
NCI-H1623	0.396	0.581	0.542	0.616	0.513	–	–	–	–	–	–	–	–	–	–	–	–	–	–	–
EMC-BAC-2	0.367	0.543	0.422	0.526	0.449	0.629	–	0.971	0.95	0.803	0.606	–	1.02	0.968	0.876	1.2	1.18	1.15	1.14	1.08
NCI-H1355	–	0.459	0.52	0.482	0.426	0.42	0.433	0.403	0.473	0.44	0.326	0.357	0.347	0.403	0.311	–	0.872	0.9	0.904	0.971
